Where two headings read alike, the source gives them in different places.
Target: IDH1 R132H (Homo sapiens (Human), UniProt O75874, R132H)
Assay: Assays for IDH1 R132H Inhibitors (NADPH/aKG, resazurin detection)
Assay type: biochemical
Experimental: Assays were conducted in a volume of […] assay buffer (150 mM NaCl, 10 mM MgCl2, 20 mM Tris pH 7.5, 0.03% bovine serum albumin) as follows in a standard 384-well plate: To 25 ul of substrate mix (8 uM NADPH, 2 mM aKG), 1 μl of test compound was added in DMSO. […] The reaction was incubated for 50 minutes at room temperature, then 25 μl of detection mix (30 μM resazurin, […]) was added and the mixture further incubated for 5 minutes at room temperature.

[1] = IDH1 R132H enzyme, Table 2, read-out: IDHR132H Activity

Chain of IDH1 R132H (O75874 whole entry R132H): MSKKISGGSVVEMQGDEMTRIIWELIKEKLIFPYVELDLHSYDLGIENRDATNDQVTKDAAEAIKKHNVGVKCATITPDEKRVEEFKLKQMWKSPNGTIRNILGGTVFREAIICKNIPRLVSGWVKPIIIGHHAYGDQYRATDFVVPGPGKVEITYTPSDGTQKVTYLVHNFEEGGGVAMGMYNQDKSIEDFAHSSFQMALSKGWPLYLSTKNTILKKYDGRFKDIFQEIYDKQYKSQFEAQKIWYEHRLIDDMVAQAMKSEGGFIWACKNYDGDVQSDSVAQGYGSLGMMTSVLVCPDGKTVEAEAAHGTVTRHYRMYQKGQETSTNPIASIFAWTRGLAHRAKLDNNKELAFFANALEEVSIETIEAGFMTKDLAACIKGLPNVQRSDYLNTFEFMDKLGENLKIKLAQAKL

| Structure (SMILES) | IC50 [1] [nM] | further results |
| --- | --- | --- |
| CC(C)c1nc(N2CCN(C(=O)Cc3cccc(F)c3)[C@H](C(C)C)C2)c(C#N)c2c1COC(C)(C)C2 [Compound 234, (R)-6-(4-(2-(3-fluorophenyl)acetyl)-3-isopropylpiperazin-1-yl)-8-isopropyl-3,3-dimethyl-3,4-dihydro-1H-pyrano[3,4-c]pyridine-5-carbonitrile] | 1000 to 10000 | – |
| CC[C@@H]1CN(c2nc(C3CC3)c3c(c2C#N)CC(C)(C)OC3)CCN1C(=O)c1ccoc1 [Compound 235] | < 500 | – |
| CCCC(=O)N1CCN(c2nc(C3CCCCC3)c3c(c2C#N)CCOC3)C[C@H]1C [Compound 379, (R)-6-(4-butyryl-3-methylpiperazin-1-yl)-8-cyclohexyl-3,4-dihydro-1H-pyrano[3,4-c]pyridine-5-carbonitrile] | 1000 to 10000 | – |
| CC(C)c1nc(N2CCN(C(=O)c3ccc(Cl)c(Cl)c3)CC2)c(C#N)c2c1COCC2 [Compound 105, 6-(4-(3,4-dichlorobenzoyl)piperazin-1-yl)-8-isopropyl-3,4-dihydro-1H-pyrano[3,4-c]pyridine-5-carbonitrile] | 1000 to 10000 | – |
| CSCCC(=O)N1CCN(c2nc(C(C)C)c3c(c2C#N)CC(C)(C)OC3)C[C@H]1C [Compound 267, (R)-8-isopropyl-3,3-dimethyl-6-(3-methyl-4-(3-(methylthio)propanoyl)piperazin-1-yl)-3,4-dihydro-1H-pyrano[3,4-c]pyridine-5-carbonitrile] | 500 to 1000 | – |
| CC1CN(c2nc(C3CCCCC3)c3c(c2C#N)CCOC3)CCN1C(=O)c1ccoc1 (stereo not drawn) [Compound 133, 8-cyclohexyl-6-(4-(furan-3-carbonyl)-3-methylpiperazin-1-yl)-3,4-dihydro-1H-pyrano[3,4-c]pyridine-5-carbonitrile] | 1000 to 10000 | – |
| CCOC(=O)C1CN(c2nc(C3CCCCC3)c3c(c2C#N)CCOC3)CCN1C(=O)OCCOC (stereo not drawn) [Compound 315, 2-ethyl-1-(2-methoxyethyl) 4-(5-cyano-8-cyclohexyl-3,4-dihydro-1H-pyrano[3,4-c]pyridin-6-yl)-piperazine-1,2-dicarboxylate] | 1000 to 10000 | – |
| N#Cc1c(N2CCN(C(=O)c3ccco3)CC2)nc(C2CCCC2)c2c1CCOC2 [Compound 124, 8-cyclopentyl-6-(4-(furan-2-carbonyl)piperazin-1-yl)-3,4-dihydro-1H-pyrano[3,4-c]pyridine-5-carbonitrile] | 1000 to 10000 | – |
| CC(C)c1nc(N2CCN(C(=O)c3cccs3)[C@H](C)C2)c(C#N)c2c1COC(C)(C)C2 [Compound 246, (R)-8-isopropyl-3,3-dimethyl-6-(3-methyl-4-(thiophene-2-carbonyl)piperazin-1-yl)-3,4-dihydro-1H-pyrano[3,4-c]pyridine-5-carbonitrile] | 1000 to 10000 | – |
| COCCC(=O)N1CCN(c2nc(C3CC3)c3c(c2C#N)CCN(C(=O)CCO)C3)C[C@H]1C1CC1 [Compound 501, (R)-1-cyclopropyl-3-(3-cyclopropyl-4-(3-methoxypropanoyl)piperazin-1-yl)-′7-(3-hydroxypropanoyl)-5,6,7,8-tetrahydro-2,7-naphthyridine-4-carbonitrile] | – | IC50 (IDH1 R132H enzyme, Table 3, read-out: R132H IC50): 500 to 1000 nM |
| CC(C)c1nc(N2CCN(C(=O)c3ccco3)C(C)C2)c(C#N)c2c1COC(C)(C)C2 (stereo not drawn) [Compound 137, 6-(4-(furan-2-carbonyl)-3-methylpiperazin-1-yl)-8-isopropyl-3,3-dimethyl-3,4-dihydro-1H-pyrano[3,4-c]pyridine-5-carbonitrile] | 1000 to 10000 | – |
| CCC1CN(c2nc(C3CCCCC3)c3c(c2C#N)CCOC3)CCN1C(=O)c1ccoc1 (stereo not drawn) [Compound 175, 8-cyclohexyl-6-(3-ethyl-4-(furan-3-carbonyl)piperazin-1-yl)-3,4-dihydro-1H-pyrano[3,4-c]pyridine-5-carbonitrile] | 1000 to 10000 | – |
| CC(C)c1nc(N2CCN(C(=O)Cc3ccccc3F)[C@H](C)C2)c(C#N)c2c1COC(C)(C)C2 [Compound 219, (R)-6-(4-(2-(2-fluorophenyl)acetyl)-3-methylpiperazin-1-yl)-8-isopropyl-3,3-dimethyl-3,4-dihydro-1H-pyrano[3,4-c]pyridine-5-carbonitrile] | 1000 to 10000 | – |
| CC(C)c1nc(N2CCN(C(=O)c3ccco3)C[C@@H]2C)c(C#N)c2c1COC(C)(C)C2 [Compound 202, (S)-6-(4-(furan-2-carbonyl)-2-methylpiperazin-1-yl)-8-isopropyl-3,3-dimethyl-3,4-dihydro-1H-pyrano[3,4-c]pyridine-5-carbonitrile] | 1000 to 10000 | – |
| CC(C)c1nc(N2CCN(C(=O)c3cscn3)[C@H](C)C2)c(C#N)c2c1COC(C)(C)C2 [Compound 252, (R)-8-isopropyl-3,3-dimethyl-6-(3-methyl-4-(thiazole-4-carbonyl)piperazin-1-yl)-3,4-dihydro-1H-pyrano[3,4-c]pyridine-5-carbonitrile] | 1000 to 10000 | – |
| C[C@@H]1CN(c2nc(C3CCCCC3)c3c(c2C#N)CCOC3)CCN1C(=O)c1cocn1 [Compound 226, (R)-8-cyclohexyl-6-(3-methyl-4-(oxazole-4-carbonyl)piperazin-1-yl)-3,4-dihydro-1H-pyrano[3,4-c]pyridine-5-carbonitrile] | 1000 to 10000 | – |
| N#Cc1c(N2CCN(C(=O)Cc3ccccc3)CC2)nc(C2CCCCC2)c2c1CCOC2 [Compound 131, 8-cyclohexyl-6-(4-(2-phenylacetyl)piperazin-1-yl)-3,4-dihydro-1H-pyrano[3,4-c]pyridine-5-carbonitrile] | 1000 to 10000 | – |
| CC(C)[C@@H]1CN(c2nc(C3CCCCC3)c3c(c2C#N)CCOC3)CCN1C(=O)c1ccoc1 [Compound 183, (R)-8-cyclohexyl-6-(4-(furan-3-carbonyl)-3-isopropylpiperazin-1-yl)-3,4-dihydro-1H-pyrano[3,4-c]pyridine-5-carbonitrile] | 1000 to 10000 | – |
| CC1(C)Cc2c(C#N)c(N3CCN(C(=O)c4ccco4)CC3)nc(C3CC3)c2CO1 [Compound 142, 8-cyclopropyl-6-(4-(furan-2-carbonyl)piperazin-1-yl)-3,3-dimethyl-3,4-dihydro-1H-pyrano[3,4-c]pyridine-5-carbonitrile] | – | IC50: 1000 to 10000 nM |
| Cc1ncoc1C(=O)N1CCN(c2nc(C3CCCCC3)c3c(c2C#N)CCOC3)C[C@H]1C [Compound 225, (R)-8-cyclohexyl-6-(3-methyl-4-(4-methyloxazole-5-carbonyl)piperazin-1-yl)-3,4-dihydro-1H-pyrano[3,4-c]pyridine-5-carbonitrile] | 1000 to 10000 | – |
| COc1ccccc1CC(=O)N1CCN(c2nc(C3CCCCC3)c3c(c2C#N)CCOC3)C[C@H]1C [Compound 224, (R)-8-cyclohexyl-6-(4-(2-(2-methoxyphenyl)acetyl)-3-methylpiperazin-1-yl)-3,4-dihydro-1H-pyrano[3,4-c]pyridine-5-carbonitrile] | 1000 to 10000 | – |
| CC1(C)Cc2c(C#N)c(N3CCN(C(=O)c4ccoc4)C(c4ccccc4)C3)nc(C3CC3)c2CO1 (stereo not drawn) [Compound 156] | 1000 to 10000 | – |
| CC1CN(c2nc(-c3cccc(F)c3)c3c(c2C#N)CC(C)(C)OC3)CCN1C(=O)c1ccoc1 (stereo not drawn) [Compound 130, 8-(3-fluorophenyl)-6-(4-(furan-3-carbonyl)-3-methylpiperazin-1-yl)-3,3-dimethyl-3,4-dihydro-1H-pyrano[3,4-c]pyridine-5-carbonitrile] | 1000 to 10000 | – |

Second part, led by results:

| IC50 [1] [nM] | Structure (SMILES) | further results |
| --- | --- | --- |
| 1000 to 10000 | CC(C)c1nc(N2CCN(C(=O)C3CCOC3)[C@H](C)C2)c(C#N)c2c1COC(C)(C)C2 (stereo partly drawn) [Compound 253, 8-isopropyl-3,3-dimethyl-6-((3R)-3-methyl-4-(tetrahydrofuran-3-carbonyl)piperazin-1-yl)-3,4-dihydro-1H-pyrano[3,4-c]pyridine-5-carbonitrile] | – |
| 500 to 1000 | CCCOCC(=O)N1CCN(c2nc(C3CC3)c3c(c2C#N)CC(C)(C)OC3)C[C@H]1C(C)C [Compound 381] | – |
| 1000 to 10000 | CC(C)NC(=O)N1CCN(c2nc(C3CC3)c3c(c2C#N)CC(C)(C)OC3)C[C@H]1C(C)C [Compound 287] | – |
| 1000 to 10000 | CC(C)[C@@H]1CN(c2nc(C3CC3)c3c(c2C#N)CC(C)(C)OC3)CCN1C(=O)COC1CCOC1 (stereo partly drawn) [Compound 417, 8-cyclopropyl-6-((3R)-3-isopropyl-4-(2-(tetrahydrofuran-3-yloxy)acetyl)piperazin-1-yl)-3,3-dimethyl-3,4-dihydro-1H-pyrano[3,4-c]pyridine-5-carbonitrile] | – |
| 1000 to 10000 | CCS(=O)(=O)N1CCN(c2nc(C3CC3)c3c(c2C#N)CC(C)(C)OC3)C[C@H]1C(C)C [Compound 391, (R)-8-cyclopropyl-6-(4-(ethylsulfonyl)-3-isopropylpiperazin-1-yl)-3,3-dimethyl-3,4-dihydro-1H-pyrano[3,4-c]pyridine-5-carbonitrile] | – |
| 1000 to 10000 | CC(=O)OCCCN1CCN(c2nc(C3CC3)c3c(c2C#N)CC(C)(C)OC3)C[C@H]1C(C)C [Compound 322] | – |
| 1000 to 10000 | CC(C)[C@@H]1CN(c2nc(C3CC3)c3c(c2C#N)CC(C)(C)OC3)CCN1C(=O)Cn1ccc2ccccc21 [Compound 406, (R)-6-(4-(2-(1H-indol-1-yl)acetyl)-3-isopropylpiperazin-1-yl)-8-cyclopropyl-3,3-dimethyl-3,4-dihydro-1H-pyrano[3,4-c]pyridine-5-carbonitrile] | – |
| < 500 | Cc1cnn(CC(=O)N2CCN(c3nc(C4CC4)c4c(c3C#N)CC(C)(C)OC4)C[C@H]2C(C)C)c1 [Compound 401, (R)-8-cyclopropyl-6-(3-isopropyl-4-(2-(4-methyl-1H-pyrazol-1-yl)acetyl)piperazin-1-yl)-3,3-dimethyl-3,4-dihydro-1H-pyrano[3,4-c]pyridine-5-carbonitrile] | – |
| 500 to 1000 | CC(C)[C@@H]1CN(c2nc(C3CC3)c3c(c2C#N)CC(C)(C)OC3)CCN1C(=O)Cn1cccn1 [Compound 325, (R)-6-(4-(2-(1H-pyrazol-1-yl)acetyl)-3-isopropylpiperazin-1-yl)-8-cyclopropyl-3,3-dimethyl-3,4-dihydro-1H-pyrano[3,4-c]pyridine-5-carbonitrile] | – |
| 1000 to 10000 | Cc1ccoc1C(=O)N1CCN(c2nc(C3CC3)c3c(c2C#N)CC(C)(C)OC3)C[C@H]1C(C)C [Compound 193] | – |
